Assay results: patent publication US10172957B2, “Acid-labile lipophilic prodrugs of cancer chemotherapeutic agents” (priority 2011, dated 2019)

Test system: SK-N-AS cells (MDR− Neuroblastoma)
Test: MTS proliferation assay using SK-N-AS cells
Type: cell-based
Conditions: Homo sapiens, SK-N-AS, read-out: IC50 in SK-N-AS
Description: SK-N-AS cells were plated in appropriate growth medium at 5×10^3 per well in 100 μL in 96 well tissue culture plates, Falcon, one plate for each drug to be tested. Column 1 was blank; it contained medium, but no cells. The plates were incubated overnight at 37° C. in 5% CO2 to allow attachment.
Drug diluted in culture media was added to the cells at a concentration of 0.005 nM to 10 μM, in quadruplicate. After 48-72 hours of drug exposure, the MTS agent was added to all wells and incubated 1-6 hrs (37° C., 5% CO2), depending on cell type, as per CellTiter 96® AQueous Non-Radioactive Cell Proliferation Assay (MTS), Promega. Plates were processed using a Bio-Tek Synergy HT Multi-detection microtiter plate reader at 490 nanometer wavelength and data were processed with KC4V.3 software. Data plots of drug concentration vs. absorbance were plotted and the concentration resulting in 50% inhibition (IC50) was extrapolated for each of the tested compounds.
As summarized in Table 1, the IC50 value for each tested compound in the SK-N-AS cell line was determined. The clinical comparator drug, paclitaxel, was included in the experiment to allow comparison of the results of the candidate compounds to a clinically relevant standard in the taxane class.

For CCCCCCCCCCCCCCCC1OCC(COC(=O)O[C@@H]2C(=O)C=C(C)[C@@H]3C[C@H]4OC(=O)C(OC(=O)CC(O)(C(C)C)C(C)C)C5[C@@H](C)[C@@H](O)[C@@]6(O)OC[C@@]54C6[C@@]23C)O1 (stereo partly shown) [ART 488], the IC50 was 330 ± 100 pM.
